Consider seven molecules from patent publication US12077503B2, “Substituted cyclic amides and their use as herbicides” (FMC CORPORATION, priority 2015, dated 2024).

Common to all, as to assay type: in vivo
Assay [1] concerns ryegrass, Italian (Italian ryegrass, Lolium multiflorum). The experiment in a line: Test A preemergence. To be noted: Lolium multiflorum, pre-emergence, 240 h; for pest or weed control at 125 g/ha: 125 g ai/ha, preemergence, visual rating after approx. 10 d, 0 to 100 scale where 0 is no effect and 100 is complete control, read-out: Plant response rating, Ryegrass, Italian; for pest or weed control at 500 g/ha: 500 g ai/ha, Preemergence, visual injury vs untreated controls after approximately 10 d, read-out: Ryegrass, Italian plant response rating (0 to 100 scale where 0 is no effect and 100 is complete control). The essentials:
(§1)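 Treatment is preemergence as a directed soil spray after planting, or postemergence at the one- to two-leaf stage, with test chemical in a non-phytotoxic solvent mixture plus surfactant. Plants stay in the greenhouse about 10 d before visual injury scoring on a 0 to 100 scale versus untreated controls.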

Assay [2] deals with Galium (catchweed bedstraw, Galium aparine). The experiment in a line: Test A postemergence. To be noted: Galium, post-emergence, 240 h, 125 g ai/ha, postemergence; visual injury after approximately 10 d; 0 to 100 scale (0 no effect, 100 complete control); read-out: Plant response rating, Galium. In a few lines:
as §1

A further assay relates to Kochia (Kochia scoparia). The experiment in a line: Test A postemergence. As to conditions: Bassia scoparia, post-emergence, 240 h, 125 g ai/ha, postemergence; visual injury after approximately 10 d; 0 to 100 scale (0 no effect, 100 complete control); read-out: Plant response rating, Kochia. In a few lines: as §1
Assay [3] has as its system barnyardgrass (Echinochloa crus-galli). The experiment in a line: Test A postemergence. As to conditions: Echinochloa crus-galli, post-emergence, 240 h, 125 g ai/ha, postemergence; visual injury after approximately 10 d; 0 to 100 scale (0 no effect, 100 complete control); read-out: Plant response rating, Barnyardgrass. In a few lines:
as §1

Assay [4] relates to blackgrass (Alopecurus myosuroides). Briefly: Test A postemergence. As to conditions: Alopecurus myosuroides, post-emergence, 240 h, 125 g ai/ha, postemergence; visual injury after approximately 10 d; 0 to 100 scale (0 no effect, 100 complete control); read-out: Plant response rating, Blackgrass. The essentials:
as §1

Another assay relates to corn (Zea mays). The experiment in a line: Test A postemergence. As to conditions: Zea mays, post-emergence, 240 h, 125 g ai/ha, postemergence; visual injury after approximately 10 d; 0 to 100 scale (0 no effect, 100 complete control). In a few lines: as §1
In assay [5] the test system is giant foxtail (Setaria faberii). Briefly: Test A postemergence. To be noted: Setaria faberi, post-emergence, 240 h, 125 g ai/ha, postemergence; visual injury after approximately 10 d; 0 to 100 scale (0 no effect, 100 complete control); read-out: Plant response rating, Foxtail, Giant. The essentials:
as §1

For assay [6], the system named is pigweed (Amaranthus retroflexus). Briefly: Test A postemergence. As to conditions: Amaranthus retroflexus, post-emergence, 240 h, 125 g ai/ha, postemergence; visual injury after approximately 10 d; 0 to 100 scale (0 no effect, 100 complete control); read-out: Plant response rating, Pigweed. In a few lines: as §1
In assay [7] the test system is ragweed (common ragweed, Ambrosia elatior). The experiment in a line: Test A postemergence. To be noted: Ambrosia artemisiifolia, post-emergence, 240 h, 125 g ai/ha, postemergence; visual injury after approximately 10 d; 0 to 100 scale (0 no effect, 100 complete control); read-out: Plant response rating, Ragweed. In a few lines: as §1
The subject of assay [8] is ryegrass, Italian (Italian ryegrass, Lolium multiflorum). Briefly: Test A postemergence. As to conditions: Lolium multiflorum, post-emergence, 240 h, 125 g ai/ha, postemergence; visual injury after approximately 10 d; 0 to 100 scale (0 no effect, 100 complete control); read-out: Plant response rating, Ryegrass, Italian. The essentials: as §1
For assay [9], the system named is wheat (Triticum aestivum). Briefly: Test A postemergence. To be noted: Triticum aestivum, post-emergence, 240 h, 125 g ai/ha, postemergence; visual injury after approximately 10 d; 0 to 100 scale (0 no effect, 100 complete control); read-out: Plant response rating, Wheat. In a few lines:
as §1

Assay [10] concerns barnyardgrass (Echinochloa crus-galli). Briefly: Test B flooded paddy test. To be noted: Echinochloa crus-galli, Flood, 250 g ai/ha; scale of 0 to 100 where 0 is no effect and 100 is complete control; read-out: Barnyardgrass plant response rating. The essentials: (§2)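 Response scored visually against untreated controls, 0 = no effect and 100 = complete control, 13–15 d after treatment in the greenhouse. Compounds added to paddy water held 3 cm above soil surface. Treatment given at 2-leaf stage.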

Assay [11] deals with ducksalad (Heteranthera limosa). Briefly: Test B flooded paddy test. To be noted: Heteranthera limosa, Flood, 250 g ai/ha; scale of 0 to 100 where 0 is no effect and 100 is complete control; read-out: Ducksalad plant response rating. In a few lines: as §2
Another assay concerns rice (Oryra sativa). The experiment in a line: Test B flooded paddy test. To be noted: Oryza sativa, Flood, 250 g ai/ha; scale of 0 to 100 where 0 is no effect and 100 is complete control; read-out: Rice plant response rating. In a few lines:
as §2

Assay [12] relates to sedge, umbrella (small-flower umbrella sedge, Cyperus difformis). The experiment in a line: Test B flooded paddy test. To be noted: Cyperus difformis, Flood, 250 g ai/ha; scale of 0 to 100 where 0 is no effect and 100 is complete control; read-out: Sedge, Umbrella plant response rating. In a few lines:
as §2

In the case of `CCc1ccc([C@H]2CNC(=S)[C@@H]2C(=O)Nc2cccc(F)c2C)cc1` [Compound 761], the pest or weed control at 125 g/ha was determined as 0% in [1]; 0% in assay [2]; 0% in the assay on Kochia (Kochia scoparia); 70% in assay [3]; 0% in assay [4]; 60% in assay [5]. The pest or weed control at 125 g/ha in assay [6], in [7] and in assay [8] was 0% each time. The molecule also registered a Corn plant response rating (crop injury, 0 = no effect, 100 = complete kill) at 125 g/ha in the assay on corn (Zea mays) of 0%. Moreover, the plant injury at 125 g/ha in [9] turned out to be 0%. Besides, the pest or weed control at 250 g/ha in [10] came out at 0%; in assay [11] it was 95%; in the assay with rice (Oryra sativa), 0%; in [12] it was 0%.
On to `CCc1ccc([C@H]2CNC(=S)[C@@H]2C(=O)Nc2cccc(F)c2F)cc1` [Compound 762], for which the pest or weed control at 125 g/ha in assay [1] worked out at 20%; in [2], 0%; in the assay with Kochia (Kochia scoparia), 0%; in assay [3], 90%; in assay [4], 0%; in assay [5] it was 20%. Further, the pest or weed control at 125 g/ha in assay [6], in [7] and in assay [8] was 0% in each case. The same molecule showed a Corn plant response rating (crop injury, 0 = no effect, 100 = complete kill) at 125 g/ha with corn (Zea mays) of 0%. The plant injury at 125 g/ha in assay [9] was found to be 0%. For the same molecule, the pest or weed control at 250 g/ha was 0% in assay [10], 98% in [11], 0% in the assay on rice (Oryra sativa) and 0% in [12].
Turning to `CCc1ccc([C@H]2CNC(=S)[C@@H]2C(=O)Nc2ccccc2SC)cc1` [Compound 763], the pest or weed control at 125 g/ha (in assay [1]; in assay [2]; in the assay with Kochia (Kochia scoparia); in assay [3]; in [4]; in [5]) was 0% in each case. For the same molecule, the pest or weed control at 125 g/ha in assay [6], in assay [7] and in assay [8] was 0% throughout. In the assay with corn (Zea mays), this molecule returned a Corn plant response rating (crop injury, 0 = no effect, 100 = complete kill) at 125 g/ha of 0%. Besides, the plant injury at 125 g/ha in assay [9] turned out to be 0%. The pest or weed control at 250 g/ha in [10] was found to be 0%; in assay [11], 60%; in the assay with rice (Oryra sativa), 0%; in assay [12], 0%.
With `O=C1NC[C@H](c2ccc3c(c2)OCO3)[C@H]1C(=O)Nc1ccccc1F` [Compound 767], the pest or weed control at 125 g/ha in assay [1] came out at 0%; in assay [2], 0%; in the assay with Kochia (Kochia scoparia) it was 0%; in [3] it was 70%; in assay [4], 0%; in assay [5], 0%. Also, the pest or weed control at 125 g/ha in [6], in assay [7] and in assay [8] was 0% in each case. For the same molecule, the Corn plant response rating (crop injury, 0 = no effect, 100 = complete kill) at 125 g/ha in the assay with corn (Zea mays) is 0%. For the same molecule, the plant injury at 125 g/ha in assay [9] is 0%. Further, the pest or weed control at 250 g/ha in assay [10] was determined as 0%; in assay [11], 100%; with rice (Oryra sativa), 0%; in [12], 0%.
Take `O=C1NC[C@H](c2ccc(OC(F)F)cc2)[C@H]1C(=O)Nc1ccccc1F` [Compound 778]: the pest or weed control at 125 g/ha in assay [1] was 0%; in assay [2] it was 60%; with Kochia (Kochia scoparia), 60%; in assay [3], 80%; in [4], 10%; in assay [5], 70%. In addition, the pest or weed control at 125 g/ha came to 10% in [6], 0% in [7] and 20% in assay [8]. Moreover, the pest or weed control at 500 g/ha in assay [1] came out at 20%. For the same molecule, the Corn plant response rating (crop injury, 0 = no effect, 100 = complete kill) at 125 g/ha in the assay on corn (Zea mays) turned out to be 0%. The plant injury at 125 g/ha in assay [9] turned out to be 0%. Further, the pest or weed control at 250 g/ha in [10] was 0%; in assay [11], 100%; with rice (Oryra sativa) it was 0%; in assay [12] it was 0%.
`CC(F)(F)c1cccc([C@H]2CNC(=O)[C@@H]2C(=O)Nc2ccc(F)cc2F)c1` [Compound 781]: the pest or weed control at 125 g/ha worked out at 20% in assay [1]; 60% in assay [2]; 0% in the assay on Kochia (Kochia scoparia); 90% in assay [3]; 70% in assay [4]; 80% in assay [5]. Also, the results for the pest or weed control at 125 g/ha in assay [6], in assay [7] and in assay [8] were 0%, 0% and 20%, respectively. The pest or weed control at 500 g/ha in [1] was 50%. Also, the Corn plant response rating (crop injury, 0 = no effect, 100 = complete kill) at 125 g/ha in the assay with corn (Zea mays) is 60%. Besides, in [9], the plant injury at 125 g/ha stood at 50%. In addition, the pest or weed control at 250 g/ha in [10] is 65%; in assay [11] it was 100%; in the assay on rice (Oryra sativa), 0%; in assay [12], 0%.
In the case of `CC(F)(F)c1cccc([C@H]2CNC(=O)[C@@H]2C(=O)Nc2ccccc2F)c1` [Compound 782], the pest or weed control at 125 g/ha is 40% in [1]; 70% in [2]; 10% in the assay with Kochia (Kochia scoparia); 90% in assay [3]; 70% in [4]; 90% in assay [5]. Further, the pest or weed control at 125 g/ha amounted to 0% in assay [6], 0% in [7] and 40% in [8]. Also, the pest or weed control at 500 g/ha in assay [1] is 60%. In addition, the Corn plant response rating (crop injury, 0 = no effect, 100 = complete kill) at 125 g/ha with corn (Zea mays) is 60%. Moreover, the plant injury at 125 g/ha in [9] is 60%. Moreover, the pest or weed control at 250 g/ha in assay [10] came to 65%; in assay [11], 100%; with rice (Oryra sativa), 0%; in assay [12] it was 0%.
